Patent publication US20250074911A1, “MACROCYCLIC BTK INHIBITORS” (Crossfire Oncology Holding B.V., priority 2021, published 2025)
Where “and” joins values, the source holds several entries; their conditions need not be identical. Identical values can stand only once.

Legend:
[1] = molecular target: full-length wt-BTK enzyme (Homo sapiens (Human), UniProt Q06187); assay: Biochemical kinase assay wt-BTK (IMAP)
Method in brief: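 IMAP fluorescence polarization assay: 1.2 nM enzyme pre-incubated 1 h with compound at room temperature, then 50 nM fluorescein-labeled MBP-derived peptide and 4 μM ATP added. Reaction ran 2 h at room temperature in the dark before quenching with IMAP binding solution.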

BTK T316A = BTK T316A (Homo sapiens (Human), UniProt Q06187, T316A); assay: Binding kinetics measurements (Surface Plasmon Resonance) on BTK T316A; conditions: for Tau (h) BTK T316A (Act): target residence time, SPR; for Kd: binding affinity by Surface Plasmon Resonance (SPR)
Protocol: (§1) Binding kinetics measurements on wt-BTK, BTK […], BTK […], BTK […] and BTK […] (Surface Plasmon Resonance) Streptavidin-coated chips (Cat. No. BR100531), disposables and maintenance kits for Biacore were purchased from Cytiva (Eindhoven, The Netherlands). […] Remaining streptavidin was blocked with biocytin. Immobilization was performed at 4° C. Subsequent assay steps were conducted at 22° C. After changing buffer to Biacore buffer with 1% (v/v) dimethylsulfoxide (DMSO), a pre-run was performed for a period of at least 30 min at a flow rate of 30 μl/min to obtain a stable surface. The kinetic constants of the compounds were determined with single cycle kinetics with five consecutive injections with an increasing compound concentration with ranges of 3.16-316 nM. […] To circumvent problems of mass transport limitation, a flow rate of 30 μl/min was used. A blank run with the same conditions was performed before the compound was injected. The SPR sensorgrams were analyzed with Biacore Evaluation Software by using a method of double referencing. First the reference channel was subtracted from the channel containing immobilized protein. Subsequently, the reference curve obtained with buffer injections was subtracted. […] Compounds that bound according to an induced fit model were fitted with a two-state reaction model. The kinetic constants (ka, […], KD) of duplicates were geometrically averaged. […] Target residence for an induced fit model was calculated as described (Tummino and Copeland, 2008).

[2] = tested on: wt-REC-1 mantle cell lymphoma cells; assay: Cell proliferation assay wt-REC-1 (ATPlite, 72 hours); assay type: cell-based; conditions: 72 h; read-out: IC50 wt-REC-1
Method in brief: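 Luminescent viability read over 72 h, start-of-incubation signal recorded separately to separate growth from cell death. Percentage growth referenced to compound-free 0.3% DMSO wells; IC50 from 4-parameter logistic fit.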

[3] = tested on: wt-TMD8 diffuse large B-cell lymphoma cells; assay: Cell proliferation assay wt-TMD8 (ATPlite, 120 hours); assay type: cell-based; conditions: B-cell; wt-TMD8 cells, 120 hours, ATPlite; read-out: IC50 wt-TMD8
Method in brief: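 wt-TMD8 DLBCL cells, 1600 per well in RPMI-1640 with 10% FBS, rested ≥5 h then exposed to compound for 120 h at 37° C, 5% CO2. Viability read by ATPlite luminescence; percentage growth calculated relative to start-of-incubation signal and untreated 0.3% DMSO maximum growth.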

[4] = molecular target: full-length BTK C481S enzyme (Homo sapiens (Human), UniProt Q06187, C481S); assay: Biochemical kinase assay BTK C481S (IMAP)
Method in brief: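 Full-length BTK C481S (1.2 nM) was pre-incubated with compound for 1 h at room temperature in the dark, then reacted with fluorescein-labelled MBP-derived peptide (50 nM) and ATP (7 μM) for 2 h. Reactions were quenched with IMAP binding solution, and IC50 values were derived from fluorescence polarization.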

BTK C481S = BTK C481S (Homo sapiens (Human), UniProt Q06187, C481S); assay: Binding kinetics measurements (Surface Plasmon Resonance) on BTK C481S; conditions: for Kd: binding affinity by Surface Plasmon Resonance (SPR); for Tau (h) BTK C418S (Act): target residence time for BTK C481S, SPR
Protocol: as §1

REC-1 T474I cell lines = assay: Cell proliferation assay REC-1 BTK T474I knock-in cells (ATPlite, 72 hours); assay type: cell-based; conditions: Homo sapiens, Rec1; 72 hours; read-out: IC50 REC-1 T474I
Method in brief: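 REC-1 cells carrying CRISPR knock-in mutant BTK, single-cell cloned and sequence-confirmed, were exposed to compound for 72 h and read by ATPlite luminescence. Percentage growth was calculated against the signal at the start of incubation and against untreated 0.3% DMSO wells as maximum growth.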

wt-BTK = wt-BTK (Homo sapiens (Human), UniProt Q06187); assay: Binding kinetics measurements (Surface Plasmon Resonance) on wt-BTK; conditions: for Tau (h) wt-BTK (Act): target residence time, SPR; for Kd: binding affinity by Surface Plasmon Resonance (SPR)
Protocol: as §1

BTK T474I = BTK T474I (Homo sapiens (Human), UniProt Q06187, T474I); assay: Binding kinetics measurements (Surface Plasmon Resonance) on BTK T474I; conditions: for Tau (h) BTK T474I (Act): target residence time, SPR; for Kd: binding affinity by Surface Plasmon Resonance (SPR)
Protocol: as §1

BTK T474S = BTK T474S (Homo sapiens (Human), UniProt Q06187, T474S); assay: Binding kinetics measurements (Surface Plasmon Resonance) on BTK T474S; conditions: for residence time: SPR binding kinetics, BTK T474S, read-out: Tau (h) BTK T474S (Act), target residence time (converted); for Kd: binding affinity by Surface Plasmon Resonance (SPR)
Protocol: as §1

Sequence of wt-BTK (Q06187 whole entry): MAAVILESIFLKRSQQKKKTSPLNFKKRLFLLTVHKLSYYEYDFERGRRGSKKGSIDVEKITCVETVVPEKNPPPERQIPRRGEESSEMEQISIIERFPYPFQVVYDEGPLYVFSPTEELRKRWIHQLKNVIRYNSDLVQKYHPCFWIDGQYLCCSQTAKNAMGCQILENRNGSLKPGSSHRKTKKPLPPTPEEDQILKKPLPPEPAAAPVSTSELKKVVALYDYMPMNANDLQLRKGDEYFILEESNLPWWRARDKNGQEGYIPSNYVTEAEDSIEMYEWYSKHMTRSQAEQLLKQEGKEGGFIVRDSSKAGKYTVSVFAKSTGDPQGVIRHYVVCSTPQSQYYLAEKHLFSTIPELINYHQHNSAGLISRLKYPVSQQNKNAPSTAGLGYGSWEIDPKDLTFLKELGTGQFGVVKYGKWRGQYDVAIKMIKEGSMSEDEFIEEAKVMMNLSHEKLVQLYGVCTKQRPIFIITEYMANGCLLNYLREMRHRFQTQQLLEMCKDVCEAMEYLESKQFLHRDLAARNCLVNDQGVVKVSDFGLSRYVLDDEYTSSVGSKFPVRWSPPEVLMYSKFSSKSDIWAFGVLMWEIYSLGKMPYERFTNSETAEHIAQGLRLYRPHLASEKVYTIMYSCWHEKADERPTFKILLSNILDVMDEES
Sequence of full-length wt-BTK enzyme (Q06187 whole entry): as above
Sequence of full-length BTK C481S enzyme (Q06187 whole entry C481S): as the sequence (Q06187 whole entry) above, with C481S counted along it
Sequence of BTK C481S (Q06187 whole entry C481S): as the sequence (Q06187 whole entry) above, with C481S counted along it
Sequence of BTK T474I (Q06187 whole entry T474I): as the sequence (Q06187 whole entry) above, with T474I counted along it
Sequence of BTK T316A (Q06187 whole entry T316A): as the sequence (Q06187 whole entry) above, with T316A counted along it
Sequence of BTK T474S (Q06187 whole entry T474S): as the sequence (Q06187 whole entry) above, with T474S counted along it

IC50 [1] [nM]	Tau (h) BTK T316A (Act) (BTK T316A) [h]	IC50 [2] [nM]	IC50 [3] [nM]	IC50 [4] [nM]	Kd (BTK C481S) [nM]	Tau (h) BTK C418S (Act) (BTK C481S) [h]	Tau (h) wt-BTK (Act) (wt-BTK) [h]	Tau (h) BTK T474I (Act) (BTK T474I) [h]	residence time (BTK T474S) [h]	Kd (BTK T474I)	Kd (BTK T316A) [nM]	Kd (wt-BTK) [nM]	Kd (BTK T474S) [nM]	Structure (SMILES)	IC50 (REC-1 T474I cell lines) [nM]
< 5	4.98	< 100	< 100	< 5	< 5	3.56	1.35	0.77						Nc1ncc2c3c1c(-c1ccc(C(=O)Nc4cc(C(F)(F)F)ccn4)cc1)nn3[C@@H]1CC[C@H](C1)NC(=O)[C@@H]1CCN1CC/C=C/2 [Example 174]	< 100
< 5		< 100	< 100	< 5	< 5	4.06	7.36	1.14	3.01	< 2 nM				C[C@@H]1CC(=O)N[C@@H]2CCC[C@H](C2)c2nc(-c3ccc(C(=O)Nc4cc(C(F)(F)F)ccn4)cc3)c3c(N)ncc(n23)/C=C/CCN1 [Example 179]	100 to 500
< 5	16.05	< 100	< 100	< 5			4.47	3.61		< 2 nM	< 5	< 5		Nc1ncc2c3c1c(-c1ccc(C(=O)Nc4cc(C(F)(F)F)ccn4)cc1)nn3[C@@H]1CCC[C@H](C1)C(=O)NCCCCC/C=C/2 [Example 2]	< 100
< 5		< 100	< 100	< 5			18.83	2.13	13.6				< 5	COc1ccc(F)cc1C(=O)NCc1ccc(-c2nn3c4c(cnc(N)c24)/C=C/CCCCCC(=O)N[C@@H]2CCC[C@@H]3C2)cc1 [Example 187]	100 to 500
< 5	5.38	< 100	< 100	< 5			3.13	1.94	1.95					C[C@@H]1C[C@@H](C)n2nc(-c3ccc(C(=O)Nc4cc(C(F)(F)F)ccn4)cc3)c3c(N)ncc(c32)/C=C/COCCC(=O)N1 [Example 176]	< 100
< 5		< 100	< 100	< 5			2.96	1.07	1.03					N#Cc1ccnc(NC(=O)c2ccc(-c3nn4c5c(cnc(N)c35)/C=C/CCCCCC(=O)N[C@@H]3CC[C@@H]4C3)cc2)c1 [Example 182]	< 100
< 5	4.74	< 100	< 100	< 5			4.53	0.63	5.15	< 2 nM	< 5	< 5	< 3	Nc1ncc2c3c1c(-c1ccc(C(=O)Nc4cc(C(F)(F)F)ccn4)cc1)nn3[C@@H]1CCC[C@H](C1)NC(=O)COCCC/C=C/2 [Example 18]	< 100
< 5		100 to 1000	< 100	< 5					1.35	10 to 50 nM and < 5 nM		< 5	< 3	COc1ccc(F)cc1C(=O)NCc1ccc(-c2nn3c4c(cnc(N)c24)/C=C/COCC(=O)N[C@@H]2CCC[C@@H]3C2)cc1 [Example 52]	500 to 10000
< 5	1.05	< 100	< 100	< 5					1.06	10 to 50 nM and < 5 nM			< 3	C[C@H]1CC(=O)N[C@@H]2CCC[C@H](C2)n2nc(-c3ccc(C(=O)Nc4cc(C(F)(F)F)ccn4)cc3)c3c(N)ncc(c32)/C=C/CCO1 [Example 156]	< 100
< 5	6.98	< 100	< 100	< 5		1.61	3.24							N#Cc1ccnc(NC(=O)c2ccc(-c3nn4c5c(cnc(N)c35)/C=C/CCN3CC[C@H]3C(=O)N[C@@H]3CCC[C@@H]4C3)cc2)c1 [Example 165]	< 100
< 5		< 100	< 100	< 5			7.42	1.16	7.27	< 2 nM				C[C@@H]1CC(=O)N[C@@H]2CCC[C@H](C2)n2nc(-c3ccc(C(=O)Nc4cc(C#N)ccn4)cc3)c3c(N)ncc(c32)/C=C/CCN1 [Example 180]	100 to 500
< 5	2.99	< 100	< 100	< 5	< 5	1.24	8.77	0.92		< 2 nM	< 5	< 5		Nc1ncc2c3c1c(-c1ccc(C(=O)Nc4cc(C(F)(F)F)ccn4)cc1)nn3[C@@H]1CCC[C@H](C1)C(=O)NCCCC/C=C/2 [Example 1]	< 100
< 5		< 100	< 100	< 5			2.95		5.65					C[C@@H]1CC(=O)N[C@@H]2CC[C@H](C2)n2nc(-c3ccc(C(=O)Nc4cc(C#N)ccn4)cc3)c3c(N)ncc(c32)/C=C/CCN1 [Example 181]	500 to 10000
< 5	3.12	< 100		< 5	< 5	6.69		0.64		10 to 50 nM and < 5 nM	< 5			Nc1ncc2c3c1c(-c1ccc(C(=O)Nc4cc(C(F)(F)F)ccn4)cc1)nn3[C@@H]1CCC[C@H](C1)C(=O)NCCCCC/C=C\C2 [Example 89b]	
< 5		< 100	< 100	< 5	< 5	4.15	>24	>24	> 24				< 5	N#Cc1ccnc(NC(=O)c2ccc(-c3nn4c5c(cnc(N)c35)/C=C/COCCC(=O)N[C@@H]3CC[C@@H]4C3)cc2)c1 [Example 183]	< 100
< 5		100 to 1000	< 100	< 5	< 5	1.85				10 to 50 nM and < 5 nM		< 5		Nc1ncc2c3c1c(-c1ccc(C(=O)Nc4cc(C(F)(F)F)ccn4)cc1)nn3[C@@H]1CCC[C@H](C1)NC(=O)CCCCCC2 [Example 114]	500 to 10000
< 5		< 100	< 100	< 5		1.28	1.69	0.54						N#Cc1ccnc(NC(=O)c2ccc(-c3nc4n5c(cnc(N)c35)/C=C/COCCC(=O)N[C@@H]3CC[C@@H]4C3)cc2)c1 [Example 199]	500 to 10000
